From patent US20260015358A1, “BICYCLIC DERIVATIVES, COMPOSITIONS AND USES THEREOF” (Danatlas Pharmaceuticals Co., Ltd., priority 2023, published 2026)

How the values were obtained:
[1] = molecular target: T1, WRN [UniPro: Q14191 (WRN_HUMAN), N500-C946] (Homo sapiens (Human), UniProt Q14191); experiment: WRN ATPase assay (ADP-Glo); format: biochemical; conditions: WRN enzymatic activity assay
[2] = molecular target: T1, WRN [UniPro: Q14191 (WRN_HUMAN), N500-C946]; experiment: WRN unwinding assay (FORKF DNA, fluorescence); format: biochemical; conditions: Table 14

T1 sequence (Q14191 500-946): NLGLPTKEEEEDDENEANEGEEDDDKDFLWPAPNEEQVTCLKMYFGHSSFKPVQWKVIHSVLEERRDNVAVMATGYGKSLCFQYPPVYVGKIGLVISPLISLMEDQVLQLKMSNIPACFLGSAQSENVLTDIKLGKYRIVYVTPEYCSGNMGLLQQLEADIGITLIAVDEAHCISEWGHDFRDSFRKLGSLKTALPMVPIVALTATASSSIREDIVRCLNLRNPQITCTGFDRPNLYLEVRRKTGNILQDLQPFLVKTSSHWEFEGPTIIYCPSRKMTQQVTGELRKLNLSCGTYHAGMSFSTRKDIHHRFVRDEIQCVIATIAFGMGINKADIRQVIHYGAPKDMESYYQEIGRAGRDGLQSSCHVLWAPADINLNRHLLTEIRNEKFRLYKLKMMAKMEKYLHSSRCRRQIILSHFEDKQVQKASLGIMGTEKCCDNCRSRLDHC

SMILES | IC50 [1] [nM] | IC50 [2] [nM]
CCc1c(N2CCN(C(=O)CNC(=O)c3ccccc3F)CC2)c(=O)n2nc(C3=CCOCC3)cc2n1CC(=O)Nc1ccc(C(F)(F)F)cc1Cl [Example 343, N-(2-(4-(4-(2-((2-Chloro-4-(trifluoromethyl)phenyl)amino)-2-oxoethyl)-2-(3,6-dihydro-2H-pyran-4-yl)-5-ethyl-7-oxo-4,7-dihydropyrazolo[1,5-a]pyrimidin-6-yl)piperazin-1-yl)-2-oxoethyl)-2-fluorobenzamide] | < 100 | < 100
CCc1c(N2CCN(C(=O)CNC(=O)N3Cc4ccccc4C3)CC2)c(=O)n2nc(C3=CCOCC3)nc2n1CC(=O)Nc1ccc(C(F)(F)F)cc1Cl [Example 185, N-(2-(4-(4-(2-((2-Chloro-4-(trifluoromethyl)phenyl)amino)-2-oxoethyl)-2-(3,6-dihydro-2H-pyran-4-yl)-5-ethyl-7-oxo-4,7-dihydro-[1,2,4]triazolo[1,5-a]pyrimidin-6-yl)piperazin-1-yl)-2-oxoethyl)isoindoline-2-carboxamide] | < 100 | < 100
CCc1c(N2CCN(C(=O)c3cc4ccsc4[nH]c3=O)CC2)c(=O)n2nc(C3=CCOCC3)nc2n1CC(=O)Nc1ccc(C(F)(F)F)cc1Cl [Example 71, N-(2-Chloro-4-(trifluoromethyl)phenyl)-2-(2-(3,6-dihydro-2H-pyran-4-yl)-5-ethyl-7-oxo-6-(4-(6-oxo-6,7-dihydrothieno[2,3-b]pyridine-5-carbonyl)piperazin-1-yl)-[1,2,4]triazolo[1,5-a]pyrimidin-4(7H)-yl)acetamide] | < 100 | < 100
CCc1c(N2CCN(C(=O)CNC(=O)c3ccccc3Cl)CC2)c(=O)n2nc(C3=CCOCC3)nc2n1CC(=O)Nc1ccc(C(F)(F)F)cc1Cl [Example 111, 2-Chloro-N-(2-(4-(4-(2-((2-chloro-4-(trifluoromethyl)phenyl)amino)-2-oxoethyl)-2-(3,6-dihydro-2H-pyran-4-yl)-5-ethyl-7-oxo-4,7-dihydro-[1,2,4]triazolo[1,5-a]pyrimidin-6-yl)piperazin-1-yl)-2-oxoethyl)benzamide] | < 100 | < 100
CCc1c(N2CCN(C(=O)CNC(=O)c3ccc(NC)cc3F)CC2)c(=O)n2nc(C3=CCOCC3)nc2n1CC(=O)Nc1ccc(C(F)(F)F)cc1Cl [Example 380, N-(2-(4-(4-(2-((2-Chloro-4-(trifluoromethyl)phenyl)amino)-2-oxoethyl)-2-(3,6-dihydro-2H-pyran-4-yl)-5-ethyl-7-oxo-4,7-dihydro-[1,2,4]triazolo[1,5-a]pyrimidin-6-yl)piperazin-1-yl)-2-oxoethyl)-2-fluoro-4-(methylamino)benzamide] | 100 to 1000 | 100 to 1000
CCc1c(N2CCN(C(=O)CNC(=O)c3ccccc3F)CC2)c(=O)n2nc(C3=CCOCC3)nc2n1CC(=O)Nc1ccc(C(F)(F)F)cc1F [Example 149, N-(2-(4-(2-(3,6-Dihydro-2H-pyran-4-yl)-5-ethyl-4-(2-((2-fluoro-4-(trifluoromethyl)phenyl)amino)-2-oxoethyl)-7-oxo-4,7-dihydro-[1,2,4]triazolo[1,5-a]pyrimidin-6-yl)piperazin-1-yl)-2-oxoethyl)-2-fluorobenzamide] | < 100 | < 100
CCc1c(N2CCN(C(=O)CNC(=O)c3cnc(C)s3)CC2)c(=O)n2nc(C3=CCOCC3)nc2n1CC(=O)Nc1ccc(C(F)(F)F)cc1Cl [Example 131, N-(2-(4-(4-(2-((2-Chloro-4-(trifluoromethyl)phenyl)amino)-2-oxoethyl)-2-(3,6-dihydro-2H-pyran-4-yl)-5-ethyl-7-oxo-4,7-dihydro-[1,2,4]triazolo[1,5-a]pyrimidin-6-yl)piperazin-1-yl)-2-oxoethyl)-2-methylthiazole-5-carboxamide] | 100 to 1000 | < 100
CCc1c(N2CCN(C(=O)c3ncc4ccccc4c3O)CC2)c(=O)n2nc(C3=CCOCC3)nc2n1CC(=O)Nc1ccc(C(F)(F)F)cc1Cl [Example 204, N-(2-Chloro-4-(trifluoromethyl)phenyl)-2-(2-(3,6-dihydro-2H-pyran-4-yl)-5-ethyl-6-(4-(4-hydroxyisoquinoline-3-carbonyl)piperazin-1-yl)-7-oxo-[1,2,4]triazolo[1,5-a]pyrimidin-4(7H)-yl)acetamide] | < 100 | < 100
CCc1c(N2CCN(C(=O)CNC(=O)c3cccnc3)CC2)c(=O)n2nc(C3=CCOCC3)nc2n1CC(=O)Nc1ccc(C(F)(F)F)cc1Cl [Example 110, N-(2-(4-(4-(2-((2-Chloro-4-(trifluoromethyl)phenyl)amino)-2-oxoethyl)-2-(3,6-dihydro-2H-pyran-4-yl)-5-ethyl-7-oxo-4,7-dihydro-[1,2,4]triazolo[1,5-a]pyrimidin-6-yl)piperazin-1-yl)-2-oxoethyl)nicotinamide] | < 100 | < 100
CCc1c(N2CCN(C(=O)CNC(=O)c3cnccc3O)CC2)c(=O)n2nc(C3=CCOCC3)nc2n1CC(=O)Nc1ccc(C(F)(F)F)cc1Cl [Example 280, N-(2-(4-(4-(2-((2-Chloro-4-(trifluoromethyl)phenyl)amino)-2-oxoethyl)-2-(3,6-dihydro-2H-pyran-4-yl)-5-ethyl-7-oxo-4,7-dihydro-[1,2,4]triazolo[1,5-a]pyrimidin-6-yl)piperazin-1-yl)-2-oxoethyl)-4-hydroxynicotinamide] | < 100 | < 100
CCc1c(N2CCN(C(=O)c3[nH]cnc3F)CC2)c(=O)n2nc(C3=CCOCC3)nc2n1CC(=O)Nc1ccc(C(F)(F)F)cc1Cl [Example 299, N-(2-Chloro-4-(trifluoromethyl)phenyl)-2-(2-(3,6-dihydro-2H-pyran-4-yl)-5-ethyl-6-(4-(4-fluoro-1H-imidazole-5-carbonyl)piperazin-1-yl)-7-oxo-[1,2,4]triazolo[1,5-a]pyrimidin-4(7H)-yl)acetamide] | 100 to 1000 | 100 to 1000
CCc1c(N2CCN(C(=O)CNC(=O)c3cccc(NC(C)=O)c3)CC2)c(=O)n2nc(C3=CCOCC3)nc2n1CC(=O)Nc1ccc(C(F)(F)F)cc1Cl [Example 278, 3-Acetamido-N-(2-(4-(4-(2-((2-chloro-4-(trifluoromethyl)phenyl)amino)-2-oxoethyl)-2-(3,6-dihydro-2H-pyran-4-yl)-5-ethyl-7-oxo-4,7-dihydro-[1,2,4]triazolo[1,5-a]pyrimidin-6-yl)piperazin-1-yl)-2-oxoethyl)benzamide] | < 100 | < 100
CCc1c(N2CCN(C(=O)CNC(=O)c3cc(O)ccc3F)CC2)c(=O)n2nc(C3=CCOCC3)nc2n1CC(=O)Nc1ccc(C(F)(F)F)cc1Cl [Example 290, N-(2-(4-(4-(2-((2-Chloro-4-(trifluoromethyl)phenyl)amino)-2-oxoethyl)-2-(3,6-dihydro-2H-pyran-4-yl)-5-ethyl-7-oxo-4,7-dihydro-[1,2,4]triazolo[1,5-a]pyrimidin-6-yl)piperazin-1-yl)-2-oxoethyl)-2-fluoro-5-hydroxybenzamide] | < 100 | < 100
CCc1c(N2CCN(C(=O)C(=O)Nc3nccs3)CC2)c(=O)n2nc(N3Cc4ccncc4C3)nc2n1CC(=O)Nc1ccc(C(F)(F)F)cc1Cl [Example 259, 2-(4-(4-(2-((2-Chloro-4-(trifluoromethyl)phenyl)amino)-2-oxoethyl)-2-(1,3-dihydro-2H-pyrrolo[3,4-c]pyridin-2-yl)-5-ethyl-7-oxo-4,7-dihydro-[1,2,4]triazolo[1,5-a]pyrimidin-6-yl)piperazin-1-yl)-2-oxo-N-(thiazol-2-yl)acetamide] | 100 to 1000 | < 100
